This is an account of results in ChEMBL document CHEMBL1150986, “Tripeptidyl pyridinium methyl ketones as potent active site inhibitors of thrombin” (Bioorg Med Chem Lett, 1996).

The target in test [1] is T1, Prothrombin (Homo sapiens, UniProt P00734). Put plainly: Compound was measured for the inhibition of alpha-human thrombin by clotting test.
The target of test [2] is T1, Prothrombin. Nature of the test: Compound was measured for the inhibition of alpha-human thrombin by amidolytic assay.

As for `CC(=O)N[C@H](CC1CCCCC1)C(=O)N1CCC[C@H]1C(=O)N[C@@H](CCCN=C(N)N)C(=O)C[n+]1ccccc1`, the Ki at Prothrombin [1] was 21 nM. Also, the half-inhibitory concentration (IC50) at Prothrombin [2] was found to be 180 nM.
Taken in the same sequence, the figures for `N=C(N)NCCC[C@H](NC(=O)[C@@H]1CCCN1C(=O)[C@H](N)CC1CCCCC1)C(=O)C[n+]1ccccc1` were 0.19 nM and 1.7 nM.
At Prothrombin [1], `CC(=O)[C@H](CCCN=C(N)N)NC(=O)[C@@H]1CCCN1C(=O)[C@H](N)CC1CCCCC1` registered a Ki of 60 nM. This compound also came in with an IC50 at Prothrombin [2] of 410 nM.
On the same counts, the results for `N=C(N)NCCC[C@H](NC(=O)[C@@H]1CCCN1C(=O)[C@H](N)CC1CCCCC1)C(=O)Cc1ccccc1` are 1.25 nM and 9.9 nM.
The compound `CC(=O)N[C@H](Cc1ccccc1)C(=O)N1CCC[C@H]1C(=O)N[C@@H](CCCNC(=N)N)C(=O)C[n+]1ccccc1` registered a Ki at Prothrombin [1] of 310 nM. Besides, half-maximal inhibition at Prothrombin [2] (IC50) required 2700 nM.
Regarding `CC(=O)N[C@H](CC1CCCCC1)C(=O)N1CCC[C@H]1C(=O)N[C@@H](CCCN=C(N)N)C(=O)Cc1ccccc1`, at Prothrombin [1], the Ki was found to be 185 nM. Also, the IC50 at Prothrombin [2] is 630 nM.

As usually defined, the Ki is a measure of affinity in units of concentration, obtained from inhibition or displacement. One may read the IC50 as the midpoint of a concentration-inhibition curve. A low value points to higher potency.
